Experiments:
[1] = Pharmacokinetic test in mice (Experimental Example 5); type: in vivo; conditions: male, ICR, mouse, plasma, oral administration of 10 mg/kg, read-out: half-life T1/2 (converted)
Description: In order to test the ADME properties of the adenosine derivative of the inventive concept after oral administration, pharmacokinetic properties of the compound of the formula A were measured in vivo. […] Intravenous administration was performed through a tube inserted into the femoral vein, and oral administration was performed using oral gavage. [Table 4] [table] After the administration, the experimental animals' blood was taken at predetermined time intervals for 24 hours. Then, the blood was centrifuged to separate plasma. The plasma samples were pretreated with a suitable organic solvent, and then the concentration of the plasma samples was analyzed by LC-MS/MS. The blood concentration-time data of the compound of the formula A was analyzed using WinNonlin (Pharsight, USA), and graphs of the blood concentration-time data are shown in FIGS. 5 through 9. The results of noncompartmental pharmacokinetic parameters calculated from the blood concentration-time data are shown in Tables 5 through 9. In FIGS. 5 through 9, I.V. represents an intravenous administration group, P.O. represents an oral administration group, and the definition of each parameter in Tables 5 through 9 is shown in Table 10. FIG. 7 and Table 7 show a graph and parameter values obtained from the blood concentration-time data of Experimental Example 5. […] Thus, the adenosine derivative is suitable for oral administration.

[2] = Plasma stability, rat plasma; type: in vitro ADME
Description: (§1) In order to test the physicochemical properties of the adenosine derivative of the inventive concept, experiments were conducted on the compound of the formula A in vitro, and the results are shown in Table 3. Plasma stability and protein binding were measured using rat and human plasma.

rats [3] = conditions: rat, in vivo
Description: (§2) In order to test the single-dose toxicity of the compound of the formula A, a single dose of 2,000 mg/kg of the compound of the formula A was administered to each of five male rats and five female rats.

Sprague Dawley rats = assay: Toxicity after intraperitoneal injection, rats; type: in vivo; conditions: intraperitoneal 20, 10 and 1 mg/kg
Description: (§3) The Adenosine Derivative of the present invention were assayed for cytotoxicity in animals.

[4] = Pharmacokinetic test in dogs (Experimental Example 6); type: in vivo; conditions: dog, plasma, maximum (Experimental Example 6), read-out: half-life T1/2
Description: In order to test the ADME properties of the adenosine derivative of the inventive concept after oral administration, pharmacokinetic properties of the compound of the formula A were measured in vivo.
Intravenous administration was performed through a tube inserted into the femoral vein, and oral administration was performed using oral gavage.
After the administration, the experimental animals' blood was taken at predetermined time intervals for 24 hours. Then, the blood was centrifuged to separate plasma. The plasma samples were pretreated with a suitable organic solvent, and then the concentration of the plasma samples was analyzed by LC-MS/MS. The blood concentration-time data of the compound of the formula A was analyzed using WinNonlin (Pharsight, USA), and graphs of the blood concentration-time data are shown in FIGS. 5 through 9. The results of noncompartmental pharmacokinetic parameters calculated from the blood concentration-time data are shown in Tables 5 through 9. In FIGS. 5 through 9, I.V. represents an intravenous administration group, P.O. represents an oral administration group, and the definition of each parameter in Tables 5 through 9 is shown in Table 10.
FIG. 8 and Table 8 show a graph and parameter values obtained from the blood concentration-time data of Experimental Example 6 (6-1, 6-2 and 6-3). […]

[5] = Storage stability of oral administration agent in 0.5 wt % methylcellulose (UPLC); type: physicochemical
Description: 0.5 wt % methylcellulose, which can be used as an excipient for oral administration, was added to the compound of the formula A, sonicated and homogenized, and then divided into a group to be stored at room temperature or at 4° C., and after 1, 3, 7, and 10 days, the stability was measured by comparing the concentration with 0.5% methyl cellulose as the control group using Waters UPLC and he results are shown in Table 12.

[6] = test system: histidine-requiring Salmonella (strains TA98, TA100, TA1535 and TA1537) and tryptophan-requiring Escherichia coli (strain WP2uvrA (pKM101)); type: cell-based
Description: In order to test the genotoxicity of the compound of the formula A, the gene mutagenicity of the compound of the formula A was evaluated in the presence and absence of metabolic activation by using histidine-requiring Salmonella (strains TA98, TA100, TA1535 and TA1537) and tryptophan-requiring Escherichia coli (strain WP2uvrA (pKM101)).

Equilibrium solubility = type: physicochemical; conditions: listed as compound of the formula A
Description: as §1

rats [7] = assay: Single-dose toxicity in rats; conditions: summary Table 11
Description: as §2

ICR mice = assay: Toxicity after intraperitoneal injection, mice; type: in vivo; conditions: intraperitoneal 20, 10 and 1 mg/kg
Description: as §3

O[C@@H]1[C@H](O)CS[C@H]1n1cnc2c(NCc3cccc(Cl)c3)nc(Cl)nc21 [Example 2, (2R,3R,4S)-2-(2-chloro-6-(3-chlorobenzylamino)-9H-purin-9-yl)tetrahydrothiophen-3,4-diol]
half-life [1]: ~3.61 h | Plasma stability [2]: > 99.9 | death after single dose (rats [3]): no animals died | weight gain or feed intake versus control group (Sprague Dawley rats): No difference | death (Sprague Dawley rats; observation for 24 hrs): No death was observed | half-life [4]: ≥ 5.53 h | Stability (%) ([5]; Stored at 4°C, After 1 day, 200 µg/ml): 118±21.4% | Stability (%) ([5]; Stored at 4°C, After 1 day, 1000 µg/ml): 76.5±11.7% | Stability (%) ([5]; Stored at 4°C, After 1 day, 3000 µg/ml): 84.8±17.9% | Stability (%) ([5]; Stored at 4°C, After 3 days, 200 µg/ml): 125±40.2% | Stability (%) ([5]; Stored at 4°C, After 3 days, 1000 µg/ml): 87.6±9.26% | Stability (%) ([5]; Stored at 4°C, After 3 days, 3000 µg/ml): 94.8±2.55% | Stability (%) ([5]; Stored at 4°C, After 7 days, 200 µg/ml): 88.3±17.3% | Stability (%) ([5]; Stored at 4°C, After 7 days, 1000 µg/ml): 80.1±27.7% | Stability (%) ([5]; Stored at 4°C, After 7 days, 3000 µg/ml): 89.7±8.30% | Stability (%) ([5]; Stored at 4°C, After 10 days, 200 µg/ml): 93.8±44.8% | Stability (%) ([5]; Stored at 4°C, After 10 days, 1000 µg/ml): 79.5±22.0% | Stability (%) ([5]; Stored at 4°C, After 10 days, 3000 µg/ml): 99.0±3.87% | Stability (%) ([5]; Stored at RT, After 1 day, 200 µg/ml): 84.3±4.10% | Stability (%) ([5]; Stored at RT, After 1 day, 1000 µg/ml): 82.7±16.3% | Stability (%) ([5]; Stored at RT, After 1 day, 3000 µg/ml): 90.5±6.44% | Stability (%) ([5]; Stored at RT, After 3 days, 200 µg/ml): 76.3±8.12% | Stability (%) ([5]; Stored at RT, After 3 days, 1000 µg/ml): 82.7±37.0% | Stability (%) ([5]; Stored at RT, After 3 days, 3000 µg/ml): 80.5±5.01% | Stability (%) ([5]; Stored at RT, After 7 days, 200 µg/ml): 80.9±14.6% | Stability (%) ([5]; Stored at RT, After 7 days, 1000 µg/ml): 75.4±6.66% | Stability (%) ([5]; Stored at RT, After 7 days, 3000 µg/ml): 101±13.2% | Stability (%) ([5]; Stored at RT, After 10 days, 200 µg/ml): 90.3±23.2% | Stability (%) ([5]; Stored at RT, After 10 days, 1000 µg/ml): 94.2±9.17% | Stability (%) ([5]; Stored at RT, After 10 days, 3000 µg/ml): 92.2±2.17% | number of back-mutant colonies versus negative control group ([6]; all doses of each strain, regardless of the metabolic activation): did not exceed twice the number of back-mutant colonies of the negative control group | dose-dependent increase of back-mutant colonies ([6]; each strain, presence and absence of metabolic activation): no dose-dependent increase was observed | Toxicity, Genotoxicity evaluation ([6]; summary Table 11): Not detected | Equilibrium solubility (Equilibrium solubility): 2.76 µg/mL | Toxicity, Single-dose toxicity evaluation (rats [7]): Not detected | weight gain or feed intake versus control group (ICR mice): No difference | death (ICR mice; observation for 24 hrs): No death was observed

Reference: patent EP4186514A1, “PHARMACEUTICAL COMPOSITION FOR PREVENTING OR TREATING CHOLANGITIS OR LIVER DISEASE CAUSED BY CHOLANGITIS COMPRISING ADENOSINE DERIVATIVE” (Future Medicine Co., Ltd., priority 2021, dated 2023)
